# According to ChEMBL document CHEMBL5252555, “Antimicrobial Polyketides from the Marine-Derived Fungus Spiromastix sp. SCSIO F190” (J Nat Prod, 2023):
# How the values were obtained:
# Assay type in all cases: functional
# Staphylococcus aureus [1] = assay: Antibacterial activity against Staphylococcus aureus ATCC 29213 assessed as inhibition of bacterial growth incubated for 18 hrs by broth microdilution method
# Staphylococcus aureus [2] = assay: Antibacterial activity against Staphylococcus aureus 16339 assessed as inhibition of bacterial growth incubated for 18 hrs by broth microdilution method
# Staphylococcus aureus [3] = assay: Antibacterial activity against Staphylococcus aureus 1862 assessed as inhibition of bacterial growth incubated for 18 hrs by broth microdilution method
# Staphylococcus aureus [4] = assay: Antibacterial activity against Staphylococcus aureus 3090 assessed as inhibition of bacterial growth incubated for 18 hrs by broth microdilution method
# Staphylococcus aureus [5] = assay: Antibacterial activity against Staphylococcus aureus 991 assessed as inhibition of bacterial growth incubated for 18 hrs by broth microdilution method
# Staphylococcus aureus [6] = assay: Antibacterial activity against Staphylococcus aureus 669 assessed as inhibition of bacterial growth incubated for 18 hrs by broth microdilution method
# Staphylococcus aureus [7] = assay: Antibacterial activity against Staphylococcus aureus 745324 assessed as inhibition of bacterial growth incubated for 18 hrs by broth microdilution method
# Staphylococcus aureus [8] = assay: Antibacterial activity against Staphylococcus aureus 16162 assessed as inhibition of bacterial growth incubated for 18 hrs by broth microdilution method
# Enterococcus faecalis [9] = assay: Antibacterial activity against Enterococcus faecalis ATCC 29212 assessed as inhibition of bacterial growth incubated for 18 hrs by broth microdilution method
# Staphylococcus aureus [10] = assay: Antibacterial activity against Staphylococcus aureus GDE4P037P assessed as inhibition of bacterial growth incubated for 18 hrs by broth microdilution method
# Enterococcus faecalis [11] = assay: Antibacterial activity against Enterococcus faecalis 36950 assessed as inhibition of bacterial growth incubated for 18 hrs by broth microdilution method
# Micrococcus luteus = assay: Antibacterial activity against Micrococcus luteus ML01 assessed as inhibition of bacterial growth incubated for 18 hrs by broth microdilution method
# Staphylococcus simulans = assay: Antibacterial activity against Staphylococcus simulans AKA1 assessed as inhibition of bacterial growth incubated for 18 hrs by broth microdilution method
# Enterococcus faecium [12] = assay: Antibacterial activity against Enterococcus faecium 36235 assessed as inhibition of bacterial growth incubated for 18 hrs by broth microdilution method
# Bacillus subtilis = assay: Antibacterial activity against Bacillus subtilis BS01 assessed as inhibition of bacterial growth incubated for 18 hrs by broth microdilution method
# Enterococcus faecium [13] = assay: Antibacterial activity against Enterococcus faecium 35682 assessed as inhibition of bacterial growth incubated for 18 hrs by broth microdilution method
# Enterococcus gallinarum = assay: Antibacterial activity against Enterococcus gallinarum 5F52C assessed as inhibition of bacterial growth incubated for 18 hrs by broth microdilution method
# Enterococcus faecium [14] = assay: Antibacterial activity against Enterococcus faecium 36711 assessed as inhibition of bacterial growth incubated for 18 hrs by broth microdilution method
# Staphylococcus aureus [15] = assay: Antibacterial activity against Staphylococcus aureus 718306 assessed as inhibition of bacterial growth incubated for 18 hrs by broth microdilution method
# Staphylococcus aureus [16] = assay: Antibacterial activity against Staphylococcus aureus 6917 assessed as inhibition of bacterial growth incubated for 18 hrs by broth microdilution method
# Staphylococcus aureus [17] = assay: Antibacterial activity against methicillin-resistant Staphylococcus aureus assessed as inhibition of bacterial growth incubated for 18 hrs by broth microdilution method
SMILES,MIC (Staphylococcus aureus [1]),MIC (Staphylococcus aureus [2]),MIC (Staphylococcus aureus [3]),MIC (Staphylococcus aureus [4]),MIC (Staphylococcus aureus [5]),MIC (Staphylococcus aureus [6]),MIC (Staphylococcus aureus [7]),MIC (Staphylococcus aureus [8]),MIC (Enterococcus faecalis [9]),MIC (Enterococcus faecalis [11]),MIC (Micrococcus luteus),MIC (Staphylococcus simulans),MIC (Enterococcus faecium [12]),MIC (Bacillus subtilis),MIC (Enterococcus faecium [13]),MIC (Enterococcus gallinarum),MIC (Enterococcus faecium [14]),MIC (Staphylococcus aureus [15]),MIC (Staphylococcus aureus [16]),MIC (Staphylococcus aureus [17]),other results
COc1c(Cl)c(O)c(Cl)c2c1C(=O)O[C@H](C)C2,> 128 µg/mL,> 128 µg/mL,> 128 µg/mL,> 128 µg/mL,> 128 µg/mL,> 128 µg/mL,> 128 µg/mL,> 128 µg/mL,> 128 µg/mL,> 128 µg/mL,> 128 µg/mL,> 128 µg/mL,> 128 µg/mL,> 128 µg/mL,> 128 µg/mL,> 128 µg/mL,> 128 µg/mL,> 128 µg/mL,> 128 µg/mL,> 128 µg/mL,MIC (Staphylococcus aureus [10]): > 128 µg/mL
CCCc1c(Cl)c(OC)cc2c1Oc1c(Cl)c(O)c(Cl)c(CCC)c1C(=O)O2,4 µg/mL,2 µg/mL,2 µg/mL,2 µg/mL,2 µg/mL,4 µg/mL,4 µg/mL,2 µg/mL,2 µg/mL,0.5 µg/mL,1 µg/mL,0.5 µg/mL,4 µg/mL,0.5 µg/mL,8 µg/mL,2 µg/mL,2 µg/mL,2 µg/mL,4 µg/mL,2 µg/mL,MIC (Staphylococcus aureus [10]): 4 µg/mL
CCCc1c(Cl)c(O)cc2c1Oc1cc(O)c(Cl)c(CCC)c1C(=O)O2,4 µg/mL,4 µg/mL,4 µg/mL,4 µg/mL,2 µg/mL,2 µg/mL,4 µg/mL,4 µg/mL,8 µg/mL,2 µg/mL,8 µg/mL,4 µg/mL,16 µg/mL,1 µg/mL,32 µg/mL,8 µg/mL,16 µg/mL,8 µg/mL,8 µg/mL,4 µg/mL,MIC (Staphylococcus aureus [10]): 8 µg/mL
CCCc1c(O)c(Oc2c(Cl)c(O)c(Cl)c(CCC)c2C(=O)OC)c(Cl)c(OC)c1Cl,8 µg/mL,8 µg/mL,8 µg/mL,8 µg/mL,8 µg/mL,8 µg/mL,8 µg/mL,8 µg/mL,16 µg/mL,4 µg/mL,4 µg/mL,4 µg/mL,8 µg/mL,4 µg/mL,16 µg/mL,4 µg/mL,8 µg/mL,16 µg/mL,8 µg/mL,8 µg/mL,MIC (Staphylococcus aureus [10]): 16 µg/mL
CCCc1c(Cl)c(OC)c(Cl)c2c1Oc1c(Cl)c(O)c(Cl)c(CCC)c1C(=O)O2,4 µg/mL,1 µg/mL,1 µg/mL,1 µg/mL,1 µg/mL,1 µg/mL,2 µg/mL,1 µg/mL,1 µg/mL,0.25 µg/mL,0.5 µg/mL,0.25 µg/mL,2 µg/mL,0.125 µg/mL,2 µg/mL,1 µg/mL,2 µg/mL,2 µg/mL,2 µg/mL,1 µg/mL,MIC (Staphylococcus aureus [10]): 2 µg/mL
CC1(C)S[C@@H]2[C@H](NC(=O)[C@H](N)c3ccccc3)C(=O)N2[C@H]1C(=O)O [AMPICILLIN],1 µg/mL,64 µg/mL,4 µg/mL,–,4 µg/mL,8 µg/mL,4 µg/mL,–,1 µg/mL,–,0.13 µg/mL,> 64 µg/mL,> 64 µg/mL,0.125 µg/mL,> 64 µg/mL,8 µg/mL,> 64 µg/mL,> 64 µg/mL,64 µg/mL,32 µg/mL,–
CCCc1c(Cl)c(OC)c(Cl)c2c1OC(=O)c1c(CCC)c(Cl)c(O)c(Cl)c1O2,32 µg/mL,8 µg/mL,8 µg/mL,8 µg/mL,16 µg/mL,8 µg/mL,8 µg/mL,8 µg/mL,16 µg/mL,2 µg/mL,1 µg/mL,1 µg/mL,4 µg/mL,0.5 µg/mL,8 µg/mL,2 µg/mL,4 µg/mL,16 µg/mL,4 µg/mL,8 µg/mL,MIC (Staphylococcus aureus [10]): 4 µg/mL
CCCc1c(Cl)c(O)c(Cl)c2c1Oc1c(Cl)c(O)c(Cl)c(CCC)c1C(=O)O2,2 µg/mL,2 µg/mL,2 µg/mL,4 µg/mL,2 µg/mL,2 µg/mL,4 µg/mL,4 µg/mL,2 µg/mL,1 µg/mL,2 µg/mL,2 µg/mL,8 µg/mL,0.25 µg/mL,4 µg/mL,2 µg/mL,4 µg/mL,4 µg/mL,8 µg/mL,2 µg/mL,MIC (Staphylococcus aureus [10]): 2 µg/mL
CN[C@H](CC(C)C)C(=O)N[C@H]1C(=O)N[C@@H](CC(N)=O)C(=O)N[C@H]2C(=O)N[C@H]3C(=O)N[C@H](C(=O)N[C@H](C(=O)O)c4cc(O)cc(O)c4-c4cc3ccc4O)[C@H](O)c3ccc(c(Cl)c3)Oc3cc2cc(c3O[C@@H]2O[C@H](CO)[C@@H](O)[C@H](O)[C@H]2O[C@H]2C[C@](C)(N)[C@H](O)[C@H](C)O2)Oc2ccc(cc2Cl)[C@H]1O [VANCOMYCIN],–,–,–,–,–,–,–,–,2 µg/mL,0.5 µg/mL,0.13 µg/mL,0.5 µg/mL,> 64 µg/mL,0.125 µg/mL,> 64 µg/mL,4 µg/mL,> 64 µg/mL,–,–,–,–
